Assay results published in patent publication US20090270452A1, “USE OF SOLUBLE EPOXIDE HYDROLASE INHIBITORS IN THE TREATMENT OF SMOOTH MUSCLE DISORDERS” (Arete Therapeutics, Inc., priority 2008, published 2009).

Experiments:
[1] = test system: rat corpus cavernosual strips; conditions: cited from earlier work; for phenylephrine (PE) induced contraction of the cavernosual strips: preincubation with the inhibitor
rat mesenteric arteries [2] = assay: Vasorelaxation of rat mesenteric arteries pre-contracted with U46619 or high KCl (myograph); type: cell-based
Method: Additional experiments were performed wherein the pre-contraction of the mesenteric arteries was induced by pre-incubation with either 0.1-1.0 μM U46619 (9,11-dideoxy-9α,11α-methanoepoxy Prostaglandin F2α, […]). The pre-contracted arteries were exposed to 2 μM, 10 μM, 50 μM, 100 μM, 500 μM or 1000 μM of Compound 2 and the level of relaxation was measured by myograph. […] The amount of relaxation induced by Compound 2 was consistent between the vessels pre-contracted by U46619 and high KCl.

[3] = test system: rabbit corpus cavernosum smooth muscle strips; assay: Relaxation of isolated rabbit corpus cavernosum smooth muscle strips (pressure transducer); type: cell-based; conditions: 10 minutes
Method: A study was performed using freshly isolated rabbit corpus cavernosum smooth muscle strips attached to a pressure transducer in a temperature controlled bath, to evaluate the efficacy of 1-adamantyl-3-(1-(methylsulfonyl)piperidin-4-yl)urea (Compound 1) for the treatment of erectile dysfunction.
The isolated rabbit corpus cavernosum strips were exposed to Compound 1 and/or 14,15-epoxyeicosatrienoic acid (14,15-EET) at 1 μM or 10 μM concentrations for 10 minutes. The relaxation of each strip was measured by pressure transduction. The percent relaxation was determined relative to a control strip incubated with sodium nitroprusside (SNP) of the formula Na2[Fe(CN)5NO].2H2O, SNP is a compound that serves as a source of nitric oxide, a potent peripheral vasodilator. All experimental conditions were done in duplicate.

rat arteries [4] = assay: Ach-induced relaxation of arteries from angiotensin II rats co-treated in vivo (myograph); conditions: ANG II rats
Method: Additionally, in vivo attenuation of the effects of ANG II by Compound 2 or Compound 3 was examined. Rats were administered ANG II for 2 weeks and co-administered ANG II and either 10 mg of Compound 2 once a day by oral gavage or 30 mg of Compound 3 per day dose in drinking water for 2 weeks. Ach induced relaxation was measured by myograph.

rat arteries [5] = assay: Ach-induced relaxation of isolated arteries from angiotensin II infused rats after in vitro pre-incubation (myograph); type: cell-based; conditions: arteries of ANG II infused rats, pre-incubation with 100 μM compound for 90 minutes; 2% without compound
Method: The efficacy of 1-(1-nicotinoylpiperidin-4-yl)-3-(4-(trifluoromethoxy)phenyl)urea (Compound 2) and 1-adamantyl-3-(1-acetylpiperidin-4-yl)urea (Compound 3) to effect vasorelaxation of rat arteries in vitro and in vivo was examined. Rats were infused with angiotensin II (ANG II) for 4 weeks resulting in a reduced vasorelaxation response to acetylcholine (Ach), a neurotransmitter known to cause endothelium-dependent vasodilation of arteries. Ach-induced relaxation was measured by myograph.

rat mesenteric arteries [6] = assay: Direct vasorelaxation of rat mesenteric arteries with intact or denuded endothelium (wired myograph); type: cell-based
Method: The efficacy of the 1-(1-nicotinoylpiperidin-4-yl)-3-(4-(trifluoromethoxy)phenyl)urea (Compound 2) to directly effect vasorelaxation of rat mesenteric arteries was examined. Rat mesenteric arteries with intact and denuded endothelium were isolated under microscope. Both intact and denuded arteries were exposed to various concentrations of Compound 2 (2 μM, 10 μM, 50 μM, 100 μM, 500 μM or 1000 μM) and the amount of relaxation was measured by a wired myograph.

arteries from SHR = assay: Aortic relaxation of isolated arteries from spontaneously hypertensive rats (SHR) to Ach or SNP after pre-incubation (myograph); type: cell-based, rat; conditions: pre-incubation with 100 μM compound for 90 minutes

CCCCCCCCCCCCNC(=O)NC1CCCCC1 [1-cyclodexy-3-dodecyl-urea]
phenylephrine (PE) induced contraction of the cavernosual strips [1]: attenuated

CCCCCC1OC1CC=CCC=CCC=CCCCC(=O)O (stereo not shown) [14,15-EET, 14,15-epoxyeicosatrienoic acid, reference compound]
EET-induced vasorelaxation in vessels precontracted with high KCl (rat mesenteric arteries [2]; pre-contracted with high KCl (100 mM per FIG. 3A)): completely blocked | relaxation of corpus cavernosum strip ([3]; 14,15-EET alone, 1 μM): no effect | relaxation of corpus cavernosum strip ([3]; 14,15-EET alone, 10 μM, in one of the two experiments): 7%

CS(=O)(=O)N1CCC(NC(=O)NC23CC4CC(CC(C4)C2)C3)CC1 [Compound 1, 1-adamantyl-3-(1-(methylsulfonyl)piperidin-4-yl)urea]
percent relaxation of corpus cavernosum strip ([3]; 1 μM of both Compound 1 and 14,15-EET, relative to SNP control strip): 15% | percent relaxation of corpus cavernosum strip ([3]; 10 μM of both Compound 1 and 14,15-EET, relative to SNP control strip): 22% | relaxation of corpus cavernosum strip ([3]; Compound 1 alone, 1 μM or 10 μM, relative to SNP control strip): did not induce relaxation

O=C(Nc1ccc(OC(F)(F)F)cc1)NC1CCN(C(=O)c2cccnc2)CC1 [Compound 2, 1-(1-nicotinoylpiperidin-4-yl)-3-(4-(trifluoromethoxy)phenyl)urea]
response to Ach-induced relaxation after in vivo co-administration (rat arteries [4]; 10 mg once a day by oral gavage for 2 weeks): significantly improved dose dependent response to Ach | percent relaxation with 100 nM Ach (rat arteries [5]): 30% | percent relaxation of mesenteric arteries (rat mesenteric arteries [6]; 10 μM of compound): 5% | percent relaxation of mesenteric arteries (rat mesenteric arteries [6]; 100 μM of compound): 60% | relaxation of pre-contracted mesenteric arteries (rat mesenteric arteries [2]; 2-1000 μM, pre-contracted by 0.1-1.0 μM U46619 or 127 mM KCl, consistent between both): dose dependent effect

CC(=O)N1CCC(NC(=O)NC23CC4CC(CC(C4)C2)C3)CC1 [Compound 3, 1-adamantyl-3-(1-acetylpiperidin-4-yl)urea]
response to Ach-induced relaxation after in vivo co-administration (rat arteries [4]; 30 mg per day dose in drinking water for 2 weeks): significantly improved dose dependent response to Ach | percent relaxation with 100 nM Ach (rat arteries [5]): 70% | percent relaxation induced by 10 μM Ach (arteries from SHR; vehicle 65%): 90% | percent relaxation induced by 100 nM SNP (arteries from SHR; vehicle 70%): 95%

CCCCc1ccc(N=CN)c(C)c1 [N′-(4-dutyl-2-methyl-phenyl)-foramidine]
phenylephrine (PE) induced contraction of the cavernosual strips [1]: attenuated

epoxyeicosatrienoic acids [EETs]
EC50 ([1]; normal, old and diabetic rat corpus cavernosual strips, read-out: apparent EC50 of relaxation): 10 nM | Emax of relaxation ([1]; normal, old and diabetic rat strips, depending on the system): 30-70%
